From ChEMBL document CHEMBL1857833, “Screening and optimization of specific chemical series against human African Trypanosomiasis (HAT)” come the findings set out here.

For one data set, the system named is Trypanosoma brucei. The experiment in a line: DNDI: Inhibition of Human African Trypanosomiasis, SBRI 427, in vitro. The following applies: Trypanosoma brucei, SBRI 427; read-out: IC50. Type of data set: functional, organism-based.
A short description of data set [1]: DNDI: Cytotoxicity against L929 mouse fibroblasts, 72 hour. It is filed as toxicity, cell-based. The following applies: mouse, L929 mouse fibroblasts.
The nature of the next data set: in vitro. The settings on record: mouse, liver microsomes, t (1 / 2). In general terms: Microsomes from liver hold many membrane-bound enzymes, among them those of drug oxidation.
For data set [2] the following is noted: mouse, microsomes, 1 µM.
Description: DNDI: in vitro intrinsic clearance in mouse liver microsomes at a concentration of 1uM

As usually defined, the IC50 is the concentration that gives 50% inhibition. The half-life is the time in which the quantity being followed falls by half.

The structures appear in SMILES notation. ≈ marks a conversion by molar mass, not a printed value.

Description for in vitro: DNDI: half life in mouse liver microsomes at a concentration of 1uM

Take `CCOCCCNC(c1nc(-c2ccccc2)c(N2CCCCC2)o1)C(C)CC` (stereo not drawn): in the data set on Trypanosoma brucei, the IC50 was determined as 2.72 µg/mL (≈ 6.81 µM). The compound also gave an IC50 at 72 h in data set [1] of 4.44 µg/mL (≈ 11.1 µM). The compound also registered a half-life at 1 µM in the data set “in vitro” of 3 min. In data set [2], this compound yielded a CLint in vitro of 255 µL/min/mg.
For `CCCCc1ccc(-c2nc(CNCC)co2)cc1`, in that order: 0.89 µg/mL (≈ 3.44 µM), 5.42 µg/mL (≈ 21 µM), 11 min and 76 µL/min/mg.
As to `CCCCCC(C)NCc1coc(-c2ccc(OCCOCC)cc2)n1` (stereo not drawn), the IC50 in the data set with Trypanosoma brucei was 1.57 µg/mL (≈ 4.36 µM). This compound showed a half-maximal inhibitory concentration (IC50) at 72 h in data set [1] of 5.78 µg/mL (≈ 16 µM). Besides, the half-life at 1 µM in “in vitro” is 20 min. Further, the CLint in vitro in data set [2] is 42 µL/min/mg.
With `CCC(C)C(NCc1ccco1)c1nc(-c2ccccc2)c(N2CCCCC2)o1` (stereo not drawn), in the data set with Trypanosoma brucei, the IC50 was determined as 4.9 µg/mL (≈ 12.5 µM). Also, the IC50 at 72 h in data set [1] is above 10 µg/mL. In “in vitro”, the half-life at 1 µM came to 4 min. Also, the CLint in vitro in data set [2] stood at 206 µL/min/mg.
Turning to `CCCCc1ccc(-c2nc(CNCc3cccnc3)co2)cc1`, the concentration for half-maximal inhibition (IC50) with Trypanosoma brucei is above 5 µg/mL. The IC50 at 72 h in data set [1] is above 10 µg/mL. For the same compound, the half-life at 1 µM in the data set “in vitro” is 19 min. This compound had a CLint in vitro in data set [2] of 44 µL/min/mg.
With `CCCCc1ccc(-c2nc(CN3CCOCC3)co2)cc1`, in the data set on Trypanosoma brucei, the IC50 is above 5 µg/mL. Besides, the IC50 at 72 h in data set [1] is above 10 µg/mL. In the data set “in vitro”, this compound returned a half-life at 1 µM of 2 min. Moreover, in data set [2], the CLint in vitro was determined as 348 µL/min/mg.
Consider `CCCCCC(C)NCc1coc(-c2ccc(OC3CCC3)cc2)n1` (stereo not drawn), for which the concentration for half-maximal inhibition (IC50) in the data set on Trypanosoma brucei is 0.88 µg/mL (≈ 2.57 µM). In data set [1], this compound returned a half-inhibitory concentration (IC50) at 72 h of 2.36 µg/mL (≈ 6.89 µM). The compound also registered a half-life at 1 µM in the data set “in vitro” of 98 min. In data set [2], this compound returned a CLint in vitro of 9 µL/min/mg.
For `Cc1cccc(CNC(c2ccccc2)c2nc(Cc3ccccc3)c(N3CCOCC3)o2)c1` (stereo not drawn), the IC50 in the data set on Trypanosoma brucei amounted to 5 µg/mL (≈ 11 µM). The same compound had a half-inhibitory concentration (IC50) at 72 h in data set [1] above 10 µg/mL. The compound further returned a half-life at 1 µM in “in vitro” of 4 min. The compound also displayed a CLint in vitro in data set [2] of 217 µL/min/mg.
As to `CCc1ccc(Oc2ncccc2/C(=N\O)NC2CCCC[C@H]2N)cc1` (stereo partly drawn), the IC50 in the data set with Trypanosoma brucei was above 5 µg/mL. The same compound came in with an IC50 at 72 h in data set [1] above 10 µg/mL. The compound also registered a half-life at 1 µM in the data set “in vitro” of 353 min. The same compound yielded a CLint in vitro in data set [2] of 2 µL/min/mg.
Taken in the same sequence, the figures for `CCCCc1ccc(-c2nc(CN3CCN(C)CC3)co2)cc1` were 2.22 µg/mL (≈ 7.08 µM), 3.75 µg/mL (≈ 12 µM), 27 min and 31 µL/min/mg.
Taken in the same sequence, the figures for `CC(C)Oc1ccc(-c2nc(CNC[C@@H]3CC[C@H]4C[C@@H]3C4(C)C)co2)cc1` were 1.06 µg/mL (≈ 2.88 µM), 1.36 µg/mL (≈ 3.69 µM), 19 min and 45 µL/min/mg.
For `CCCCc1ccc(-c2nc(CNC(C)C)co2)cc1`, in the data set on Trypanosoma brucei, the IC50 was found to be 2.22 µg/mL (≈ 8.15 µM). For the same compound, the IC50 at 72 h in data set [1] was 5.7 µg/mL (≈ 20.9 µM). Further, the half-life at 1 µM in “in vitro” is 17 min. For the same compound, the CLint in vitro in data set [2] came to 50 µL/min/mg.
In the case of `CCCCCC(C)NCc1coc(Cc2ccc(OC)cc2)n1` (stereo not drawn), the IC50 in the data set with Trypanosoma brucei is 3.24 µg/mL (≈ 10.2 µM). For the same compound, inhibition in data set [1] was half-maximal at 10 µg/mL (≈ 31.6 µM) (IC50 at 72 h). In addition, the half-life at 1 µM in the data set “in vitro” was 16 min. The CLint in vitro in data set [2] came out at 55 µL/min/mg.
Taken in the same sequence, the figures for `Cc1ccc(/C(=N/O)NC2CCCCC2)c(Oc2c(F)cccc2F)n1` were 1.05 µg/mL (≈ 2.91 µM), above 10 µg/mL, 3 min and 255 µL/min/mg.
Turning to `Cc1ccc(/C(=N/O)Nc2cccc(F)c2)c(Oc2ccc(C(C)(C)C)cc2)n1`, the IC50 in the data set on Trypanosoma brucei turned out to be 0.32 µg/mL (≈ 0.813 µM). In data set [1], this compound gave an IC50 at 72 h of 5.39 µg/mL (≈ 13.7 µM). Besides, the half-life at 1 µM in the data set “in vitro” was found to be 26.8 min. This compound also had a CLint in vitro in data set [2] of 31.75 µL/min/mg.
Regarding `CCCCc1ccc(-c2nc(CNC(C)CC)co2)cc1` (stereo not drawn), in the data set on Trypanosoma brucei, the IC50 turned out to be 0.74 µg/mL (≈ 2.58 µM). In data set [1], this compound had an IC50 at 72 h of 2.75 µg/mL (≈ 9.6 µM). The compound further registered a half-life at 1 µM in the data set “in vitro” of 20 min. Moreover, the CLint in vitro in data set [2] was 42 µL/min/mg.
For `CC(C)Oc1ccc(-c2nc(CN[C@@H]3C[C@@H]4C[C@H]([C@H]3C)C4(C)C)co2)cc1`, in the data set with Trypanosoma brucei, the 50% inhibitory concentration (IC50) was 1.37 µg/mL (≈ 3.72 µM). The half-maximal inhibitory concentration (IC50) at 72 h in data set [1] came out at 1.9 µg/mL (≈ 5.16 µM). The same compound registered a half-life at 1 µM in “in vitro” of 79 min. This compound also registered a CLint in vitro in data set [2] of 11 µL/min/mg.
